Measurements taken from patent publication US11071731B2, “Allosteric modulators of the mu opioid receptor” (Chiromics, LLC, priority 2017, dated 2021).

Tests used:
mu opioid receptor (MOR) [1] = target: T1, mu opioid receptor (MOR) (Homo sapiens, UniProt P35372); assay: Hit Hunter cAMP signaling assay (adenylyl cyclase inhibition), PAM mode with EC20 endomorphin-1; assay type: cell-based
mu opioid receptor (MOR) [2] = target: T1, mu opioid receptor (MOR); assay: PathHunter β-arrestin recruitment assay, PAM mode with EC20 endomorphin-1; assay type: cell-based
How it was run: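 Enzyme fragment complementation read-out: β-gal ED fragment fused to receptor, EA fused to β-arrestin, recruitment restoring β-gal activity detected by chemiluminescence. EC50 and percent maximal response derived for each compound.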

[3] = maximal response for adenylyl cyclase inhibition
[4] = maximal response for β-arrestin recruitment
[5] = cAMP EC50, adenylyl cyclase inhibition
[6] = β-arrestin recruitment, read-out: β-arr. EC50
[7] = adenylyl cyclase inhibition, read-out: cAMP EC50
[8] = maximal response, adenylyl cyclase inhibition
[9] = maximal response, β-arrestin recruitment

T1 sequence (P35372 whole entry): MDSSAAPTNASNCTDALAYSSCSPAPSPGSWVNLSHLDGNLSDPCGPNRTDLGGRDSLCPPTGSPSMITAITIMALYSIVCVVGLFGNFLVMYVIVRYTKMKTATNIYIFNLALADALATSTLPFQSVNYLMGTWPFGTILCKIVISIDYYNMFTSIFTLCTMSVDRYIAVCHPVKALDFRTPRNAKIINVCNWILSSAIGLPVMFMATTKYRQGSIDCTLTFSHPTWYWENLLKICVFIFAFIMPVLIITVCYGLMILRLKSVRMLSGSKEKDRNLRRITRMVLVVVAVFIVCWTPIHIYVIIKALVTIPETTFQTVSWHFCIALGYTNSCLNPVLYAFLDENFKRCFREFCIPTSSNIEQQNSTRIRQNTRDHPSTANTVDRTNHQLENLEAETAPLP

Row | SMILES | cAMP Max. Resp. (mu opioid receptor (MOR) [1]; [3]) | β-arr Max. Resp. (mu opioid receptor (MOR) [2]; [4]) | EC50 (mu opioid receptor (MOR) [1]; [5]) | EC50 (mu opioid receptor (MOR) [2]; [6]) | EC50 (mu opioid receptor (MOR) [1]; [7]) | other results
1 | Fc1ccc(C2C3CCC(C3)N2Cc2cc(Cl)ccc2F)cc1Cl (centres unmarked) [compound 217] | D (D represents a maximal response of < 40%) | F (F represents a maximal response of > 60%) | – | – | – | EC50 (mu opioid receptor (MOR) [1]): > 2100 nM; EC50 (mu opioid receptor (MOR) [2]; β-arr. EC50, β-arrestin recruitment): 700 to 2100 nM
2 | COc1ccc(C2CCCCN2S(C)(=O)=O)cc1Br (centres unmarked) [compound 16] | D (D represents a maximal response of < 40%) | D (D represents a maximal response of < 40%) | > 2100 nM | > 2100 nM | – | –
3 | CN1CCN(c2nc(Cl)ncc2F)C(c2cc(F)cc(C(F)(F)F)c2)C1 (racemic) [Compound 305] | F (F represents a maximal response of > 60%) | F (F represents a maximal response of > 60%) | – | 700 to 2100 nM | 700 to 2100 nM | –
4 | Fc1cnc(Cl)nc1N1CCSCC1c1cccc(C(F)(F)F)c1 (centres unmarked) [Compound 456] | – | – | – | > 2100 nM | > 2100 nM | cAMP Max. Resp. (mu opioid receptor (MOR) [1]; [8]): E (E represents a maximal response of 40-60%); β-arr Max. Resp. (mu opioid receptor (MOR) [2]; [9]): F (F represents a maximal response of > 60%)
5 | Fc1ccc(C2CCCCN2Cc2cncc(Cl)c2)cc1Cl (centres unmarked) [compound 147] | D (D represents a maximal response of < 40%) | F (F represents a maximal response of > 60%) | > 2100 nM | > 2100 nM | – | –
6 | Fc1cnc(Cl)nc1N1CCCCC1c1cccc(Cl)c1 (centres unmarked) [compound 285] | E (E represents a maximal response of 40-60%) | F (F represents a maximal response of > 60%) | > 2100 nM | 700 to 2100 nM | – | –
7 | Fc1ccc(Cl)nc1N1CCCCC1c1cncc(Cl)n1 (centres unmarked) [compound 395] | D (D represents a maximal response of < 40%) | D (D represents a maximal response of < 40%) | – | < 700 nM | < 700 nM | –
8 | COc1ccc(C2COCCN2Cc2cc(Cl)ccc2F)cc1Br (racemic) [Compound 192] | D (D represents a maximal response of < 40%) | F (F represents a maximal response of > 60%) | – | > 2100 nM | > 2100 nM | –
9 | O=S(=O)(c1ccc(Cl)cc1)N1CCCCC1c1ccnc(C(F)(F)F)c1 (racemic) [compound 57] | E (E represents a maximal response of 40-60%) | F (F represents a maximal response of > 60%) | – | > 2100 nM | > 2100 nM | cAMP Max Resp. (mu opioid receptor (MOR) [1]; adenylyl cyclase inhibition, activity switching by MOR PAMs): E (E represents a maximal response of 40-60%); EC50 (mu opioid receptor (MOR) [1]; adenylyl cyclase inhibition, activity switching by MOR PAMs, read-out: cAMP EC50): > 2100 nM; β-arrestin Max Response (mu opioid receptor (MOR) [2]; β-arrestin recruitment, activity switching by MOR PAMs): F (F represents a maximal response of >60%); EC50 (mu opioid receptor (MOR) [2]; β-arrestin recruitment, activity switching by MOR PAMs, read-out: β-arrestin EC50): > 2100 nM
10 | COc1ncc(F)c(N2CCCCC2c2cccc(F)n2)n1 (centres unmarked) [compound 272] | F (F represents a maximal response of > 60%) | D (D represents a maximal response of < 40%) | > 2100 nM | > 2100 nM | – | –
11 | Fc1ccc(C2C(F)CCCN2c2nc(Cl)ncc2F)cc1Br (centres unmarked) [compound 210] | E (E represents a maximal response of 40-60%) | F (F represents a maximal response of > 60%) | 700 to 2100 nM | > 2100 nM | – | –
12 | CC1CCN(S(=O)(=O)c2ccc(Cl)cc2)C1c1ccc(F)c(Cl)c1 (mixture of isomers) [Compound 105] | D (D represents a maximal response of < 40%) | F (F represents a maximal response of > 60%) | – | 700 to 2100 nM | 700 to 2100 nM | –
13 | Fc1ccc(C2CCCCN2c2nc(Cl)ncc2F)cc1Cl (single isomer, unassigned) [compound 11] | E (E represents a maximal response of 40-60%) | F (F represents a maximal response of > 60%) | – | < 700 nM | – | –
14 | Fc1ccc(C2CCCCN2c2cccc(Cl)c2)cc1Cl (centres unmarked) [compound 443] | – | – | > 2100 nM | > 2100 nM | – | cAMP Max. Resp. (mu opioid receptor (MOR) [1]; [8]): D (D represents a maximal response of < 40%); β-arr Max. Resp. (mu opioid receptor (MOR) [2]; [9]): F (F represents a maximal response of > 60%)
15 | Fc1ccc(C(F)(F)F)cc1C1CCCCN1c1ccnc(Cl)n1 (centres unmarked) [compound 403] | D (D represents a maximal response of < 40%) | D (D represents a maximal response of < 40%) | < 700 nM | < 700 nM | – | –
16 | Cc1cncc(C2CCCCN2c2nc(Cl)ncc2F)c1 (centres unmarked) [compound 330] | D (D represents a maximal response of < 40%) | D (D represents a maximal response of < 40%) | < 700 nM | < 700 nM | – | –
17 | Fc1cc(C2CC(C(F)(F)F)CN2c2nc(Cl)ncc2F)cc(C(F)(F)F)c1 (centres unmarked) [compound 457] | – | – | – | > 2100 nM | > 2100 nM | cAMP Max. Resp. (mu opioid receptor (MOR) [1]; [8]): E (E represents a maximal response of 40-60%); β-arr Max. Resp. (mu opioid receptor (MOR) [2]; [9]): F (F represents a maximal response of > 60%)
18 | [N-]=[N+]=Nc1cccc(C2CCCCN2Cc2cc(Cl)ccc2F)n1 (centres unmarked) [compound 144] | D (D represents a maximal response of < 40%) | E (E represents a maximal response of 40-60%) | > 2100 nM | > 2100 nM | – | –
19 | Fc1ccc(Cl)nc1N1CCCCC1c1ccc(C(F)(F)F)nc1 (centres unmarked) [compound 415] | D (D represents a maximal response of < 40%) | D (D represents a maximal response of < 40%) | < 700 nM | < 700 nM | – | –
20 | Fc1ccc(C2C(F)CCCN2c2nc(Cl)ncc2F)cc1Br (centres unmarked) [compound 211] | E (E represents a maximal response of 40-60%) | F (F represents a maximal response of > 60%) | > 2100 nM | > 2100 nM | – | –
21 | Fc1cnc(Cl)nc1N1CCCCC1c1ccc(OC(F)(F)F)c(Br)c1 (centres unmarked) [compound 126] | E (E represents a maximal response of 40-60%) | F (F represents a maximal response of > 60%) | < 700 nM | < 700 nM | – | –
22 | O=S(=O)(c1cccc(Cl)c1)N1CCCC(F)C1c1ccc(F)c(Br)c1 (centres unmarked) [Compound 32] | – | – | – | > 2100 nM | > 2100 nM | –
23 | O[C@H]1CC[C@H](c2cc(F)cc(C(F)(F)F)c2)N(c2nc(Cl)ncc2F)C1 (relative stereo) [compound 310] | F (F represents a maximal response of > 60%) | F (F represents a maximal response of > 60%) | – | > 2100 nM | 700 to 2100 nM | –
24 | Fc1ccc(C2CCCCN2Cc2cc(Cl)ccc2F)cc1Cl (centres unmarked) [compound 160] | F (F represents a maximal response of > 60%) | F (F represents a maximal response of > 60%) | 700 to 2100 nM | 700 to 2100 nM | – | –
25 | O=S(=O)(c1ccc(Cl)cc1F)N1CCCC(F)C1c1ccc(F)c(Br)c1 (centres unmarked) [Compound 37] | – | – | – | > 2100 nM | > 2100 nM | –
26 | Fc1cnc(Cl)nc1N1C2CCC(C2)C1c1cccc(C(F)(F)F)n1 (centres unmarked) [compound 137] | D (D represents a maximal response of < 40%) | D (D represents a maximal response of < 40%) | > 2100 nM | > 2100 nM | – | –
27 | Fc1cnc(Cl)nc1N1CCC(F)CC1c1cccc(C(F)(F)F)c1 (centres unmarked) [compound 197] | F (F represents a maximal response of > 60%) | F (F represents a maximal response of > 60%) | 700 to 2100 nM | 700 to 2100 nM | – | –
28 | Fc1ccc(C2CCCCN2c2ccc(C(F)(F)F)cc2)cc1Cl (centres unmarked) [compound 453] | – | – | > 2100 nM | > 2100 nM | – | cAMP Max. Resp. (mu opioid receptor (MOR) [1]; [8]): D (D represents a maximal response of < 40%); β-arr Max. Resp. (mu opioid receptor (MOR) [2]; [9]): D (D represents a maximal response of < 40%)
29 | Cc1cc(C2CCCCN2S(=O)(=O)c2ccc(Cl)cc2)ccn1 (racemic) [compound 77] | D (D represents a maximal response of < 40%) | F (F represents a maximal response of > 60%) | – | > 2100 nM | > 2100 nM | –
30 | Cc1cc(C2C(C)CCN2S(=O)(=O)c2ccc(Cl)cc2)ccc1F (mixture of isomers) [Compound 101] | D (D represents a maximal response of < 40%) | F (F represents a maximal response of > 60%) | – | 700 to 2100 nM | < 700 nM | –
